Tested on: 454973-116-R2-J3-PDC spheroids, viability, % test/control
Experiment: Anticancer human tumor 454973-116-R2-J3-PDC patient-derived pancreatic carcinoma cell line growth inhibition [GQUAD]
Conditions: spheroids with HUVEC and MSC; for IC50: curve of first compound; for viability, T/C: stronger effect = lower value; active = viability on the fitted dose curve at most 10% of control; inactive = the rest
Text: DNA G-quadruplex Stabilizer Agents in Combinations in Complex Spheroids
A high-throughput screen of multi-cell type tumor spheroids was designed to identify active combinations of DNA G-quadruplex stabilizer agents and targeted small molecules. Complex spheroids include a stromal component modeled by human endothelial cells (HUVEC) and fibroblasts modeled by human mesenchymal stem cells (MSCs). The concentration ranges selected for each drug and investigational agent were based upon clinically achievable concentrations if the clinical Cmax of the agent was known.
Compounds. The drugs and investigational agents: pidnarulex (CX-5461; NSC782164), APTO-253 (NSC789042), BRACO-19 (NSC847499), peposertib (NSC802822), ceralasertib (NSC780249), elimusertib (NSC800525), camonsertib (NSC841442), AZD-1390 (NSC803789), olaparib (NSC753686), talazoparib (NSC767125), ART-558 (NSC835418), sotorasib (NSC818433), MRTX-1133 (NSC836407), SN-38 (NSC673596), topotecan (NSC609699), etoposide (NSC141540), doxorubicin (NSC123127), gemcitabine (NSC613327), 5-fluorouracil (NSC19893), paclitaxel (NSC125973), vemurafenib (NSC761431), panobinostat (NSC761190), R-306465 (JNJ-16241199; NSC773264), adavosertib (NSC754352), TP-3654 (NSC805149), carboplatin (NSC241240), KSQ-4279 (NSC840948), and staurosporine (NSC755774) were obtained from the National Cancer Institute (NCI) Developmental Therapeutics Program Chemical Repository (34). The FDA-approved anticancer drug set is available from the NCI Developmental Therapeutics Program. […] The stock solutions were prepared in dimethyl sulfoxide (DMSO, Sigma-Aldrich, St. Louis, MO, cat. D2650) at 800-fold the tested concentration and stored at -70 degrees C prior to their use. All drugs and investigational agents were tested over a range starting from a high concentration at or near the clinical Cmax and decreasing in half-log increments. If the clinical Cmax for an agent had not been determined, the highest concentration tested was 10 microM.
2.3 Cell Culture. All cells were maintained in an incubator at 37 degrees C and 5% CO2 with 95% humidity. The PDC lines were cultured according to standard operating procedures established by the NCI PDMR. All PDCs were thawed and cultured in Matrigel-coated flasks prepared with a working solution of 1X Ham's F-12 nutrient mix, without supplementation (Invitrogen, cat. 11765054), 100 U/mL penicillin-streptomycin (Invitrogen, cat. 15140122), and 2.5% Matrigel (Corning Inc., cat. 354248) for the first three passages. The 857933-349-R-J2-PDC line was cultured in 6C/Colon 1B media, which includes advanced DMEM/F-12 (Thermo Fisher Scientific, cat. 12634028), 10 mM HEPES (Thermo Fisher Scientific, cat. 15630080), 1X GlutaMAX supplement (Thermo Fisher Scientific, cat. 35050061), 0.1 mg/mL primocin (InvivoGen, cat. ant-pm-2), 10% defined fetal bovine serum, heat inactivated (HyClone Laboratories Inc., cat. SH30070.03HI), 50% L-WRN conditioned media (ATCC, cat. CRL-3276), 1.25 mM N-Acetyl-L-cysteine (Sigma-Aldrich, cat. A9165), 10 mM nicotinamide (Sigma-Aldrich, cat. N0636), 1X B-27 supplement (Thermo Fisher Scientific, cat. 17504044), 1X N-2 supplement (Thermo Fisher Scientific, cat. 17502048), 10 microM Y-27632 dihydrochloride (Tocris Bioscience, cat. 1254), and 50 ng/mL human EGF recombinant protein (Thermo Fisher Scientific, cat. PHG0311). The 485176-168-R4-J1-PDC line was cultured in Panc media, which includes all 6C/Colon 1B media components plus 100 ng/mL human FGF-10 (Thermo Fisher Scientific, cat. 100-26), 500 nM SB-431542 (Selleckchem, cat. S1067), and gastrin (Tocris, cat. 3006).
[…]
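Note: spheroids exposed to compounds for seven days.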

CC1COCCN1c1cc(-c2ccnn2C)c2ccnc(-c3ccn[nH]3)c2n1 (configuration not stated) + Cc1[nH]c2ccc(F)cc2c1-c1nc2c3cccnc3c3ncccc3c2[nH]1
116 nM: IC50 (second compound 3.16 µM)
117 nM: IC50 (second compound 10 µM)
158 nM: IC50 (second compound 1 µM)
162 nM: IC50 (second compound 0.0316 µM)
171 nM: IC50 (second compound 0.1 µM)
168 nM: IC50 (second compound 0.316 µM)
inactive: viability, T/C (second compound 0.0316 µM, first compound 0.0316 µM) 97.4% | viability, T/C (second compound 0.0316 µM, first compound 0.1 µM) 66.8% | viability, T/C (second compound 0.0316 µM, first compound 0.316 µM) 26.6% | viability, T/C (second compound 0.0316 µM, first compound 1 µM) 23.2% | viability, T/C (second compound 0.0316 µM, first compound 3.16 µM) 26.3% | viability, T/C (second compound 0.0316 µM, first compound 10 µM) 23.6% | viability, T/C (second compound 0.1 µM, first compound 0.0316 µM) 98.1% | viability, T/C (second compound 0.1 µM, first compound 0.1 µM) 67.1% | viability, T/C (second compound 0.1 µM, first compound 0.316 µM) 30.6% | viability, T/C (second compound 0.1 µM, first compound 1 µM) 23.3% | viability, T/C (second compound 0.1 µM, first compound 3.16 µM) 24% | viability, T/C (second compound 0.1 µM, first compound 10 µM) 26.4% | viability, T/C (second compound 0.316 µM, first compound 0.0316 µM) 97.8% | viability, T/C (second compound 0.316 µM, first compound 0.1 µM) 65.8% | viability, T/C (second compound 0.316 µM, first compound 0.316 µM) 31% | viability, T/C (second compound 0.316 µM, first compound 1 µM) 20.6% | viability, T/C (second compound 0.316 µM, first compound 3.16 µM) 23.4% | viability, T/C (second compound 0.316 µM, first compound 10 µM) 21.9% | viability, T/C (second compound 1 µM, first compound 0.0316 µM) 87% | viability, T/C (second compound 1 µM, first compound 0.1 µM) 62% | viability, T/C (second compound 1 µM, first compound 0.316 µM) 32.2% | viability, T/C (second compound 1 µM, first compound 1 µM) 18.7% | viability, T/C (second compound 1 µM, first compound 3.16 µM) 20.3% | viability, T/C (second compound 1 µM, first compound 10 µM) 22.8% | viability, T/C (second compound 3.16 µM, first compound 0.0316 µM) 92.2% | viability, T/C (second compound 3.16 µM, first compound 0.1 µM) 52.9% | viability, T/C (second compound 3.16 µM, first compound 0.316 µM) 30.2% | viability, T/C (second compound 3.16 µM, first compound 1 µM) 20.8% | viability, T/C (second compound 3.16 µM, first compound 3.16 µM) 23.5% | viability, T/C (second compound 3.16 µM, first compound 10 µM) 24.9% | viability, T/C (second compound 10 µM, first compound 0.0316 µM) 81.6% | viability, T/C (second compound 10 µM, first compound 0.1 µM) 53.1% | viability, T/C (second compound 10 µM, first compound 0.316 µM) 29.8% | viability, T/C (second compound 10 µM, first compound 1 µM) 18.3% | viability, T/C (second compound 10 µM, first compound 3.16 µM) 23.1% | viability, T/C (second compound 10 µM, first compound 10 µM) 22.6%
